This note sets out measurements from publication PMC7464559, “Synthesis, Optimization, Antifungal Activity, Selectivity, and CYP51 Binding of New 2-Aryl-3-azolyl-1-indolyl-propan-2-ols” (Pharmaceuticals, 2020).

Holding throughout (type): cell-based
The test system of one assay is C. albicans CA98001. Kind of assay: Anti-Candida in vitro assay (Alamar Blue), C. albicans CA98001. The note with it: for MIC: Candida albicans, CA98001, 24 h, MIC = IC80, 24 h at 37 °C, mean of triplicate; for Times more active than FLC against C. albicans CA98001: ratio of MIC values versus FLC. An outline of the steps: (§1)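 Alamar Blue fluorescence, ex 550 nm/em 590 nm, read after 4 h dye incubation, gives viability. Cells (10^3 cells/mL final) grown with compound dilutions in MOPS-buffered (0.165 M) RPMI 1640 plus 2% glucose, 24 h, 37 °C. MIC reported as mean of triplicates.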

For assay [1], the system named is ATCC2091 Candida albicans strain. Kind of assay: Anti-Candida in vitro assay, ATCC2091. The note with it: Candida albicans ATCC2091, mean of triplicate; read-out: MIC (IC80) ATCC2091. The method, boiled down: as §1
In assay [2] the test system is CA98002 (Candida albicans). The experiment in a line: Anti-Candida in vitro assay, CA98002. The note with it: Candida albicans CA98002, mean of triplicate; read-out: MIC (IC80) CA98002. The method, boiled down:
as §1

For assay [3], the system named is ATCC6258 Candida krusei strain. Kind of assay: Anti-Candida in vitro assay, ATCC6258. The note with it: Pichia kudriavzevii; Candida krusei ATCC6258, mean of triplicate; read-out: MIC (IC80) ATCC6258. An outline of the steps: as §1
Another assay concerns CK98003 (Candida krusei). Kind of assay: Anti-Candida in vitro assay, CK98003. The note with it: Pichia kudriavzevii; Candida krusei CK98003, mean of triplicate; read-out: MIC (IC80) CK98003. An outline of the steps: as §1
In assay [4] the test system is ATCC90018 Candida parapsilosis strain. Kind of assay: Anti-Candida in vitro assay, ATCC90018. As to conditions: Lodderomyces parapsilosis; Candida parapsilosis ATCC90018, mean of triplicate; read-out: MIC (IC80) ATCC90018. The method, boiled down: as §1
In assay [5] the target is T1, 11β-hydroxylase (CYP11B1) (Homo sapiens, UniProt P15538).
T1 construct: expressed in transfected cells; host or cells: Schizosaccharomyces pombe strain SZ1
T1 sequence (P15538 25-503): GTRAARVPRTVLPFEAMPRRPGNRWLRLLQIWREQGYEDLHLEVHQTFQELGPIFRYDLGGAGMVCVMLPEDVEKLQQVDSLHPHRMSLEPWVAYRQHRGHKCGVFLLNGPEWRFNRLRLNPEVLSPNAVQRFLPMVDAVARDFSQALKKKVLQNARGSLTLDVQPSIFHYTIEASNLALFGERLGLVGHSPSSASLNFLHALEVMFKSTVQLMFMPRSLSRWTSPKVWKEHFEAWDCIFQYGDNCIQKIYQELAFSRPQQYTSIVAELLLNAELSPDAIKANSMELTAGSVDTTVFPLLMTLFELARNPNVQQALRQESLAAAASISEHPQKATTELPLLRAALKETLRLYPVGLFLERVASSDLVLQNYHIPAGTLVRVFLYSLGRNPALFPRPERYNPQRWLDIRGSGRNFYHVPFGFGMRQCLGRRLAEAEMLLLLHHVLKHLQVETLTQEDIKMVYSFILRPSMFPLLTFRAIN
The experiment in a line: In vitro inhibition of CYP11B1 (Schizosaccharomyces pombe SZ1). The note with it: inhibitor 100 nM to 5 µM, three to four independent experiments. Here is the method:
(§2) For the CYP11B1 assay, 11-deoxycortisol (RSS) was used as substrate, whereas 11-deoxycorticosterone (DOC) was used for the CYP11B2 assay. These non-radioactive steroids were purchased from Sima (Deisenhofen, Germany). Radioactive steroids were obtained from Amersham Pharmacia Biotech (Freiburg, Germany). Two Schizosaccharomyces pombe strains were used, SZ1 expressing CYP11B1 and MB164 expressing CYP11B2. The assays were performed as described previously by Bureik et al.. Exponentially growing fission yeast cells were cultivated by shaking and with good aeration at 30 °C in 500 µL Edinburgh Minimal Medium Glutamate (EMMG) containing supplements as required. Inhibitors were dissolved in ethanol at different concentrations, and equal volumes of ethanolic solutions were used in all cases (including controls). Final concentrations of inhibitors ranged from 100 nM to 5 µM. Cells were preincubated with the respective inhibitor solutions for 15 min prior to the addition of steroid substrates (100 nM DOC or 100 nM RSS, respectively). For detection of steroids, 1% of the total substrate amount was radioactively labeled as [^3H]RSS, [^3H]DOC, or [^14C]DOC. After 4 h (MB164) or 24 h (SZ1) cultures were extracted with chloroform and dried under vacuum. The residues were dissolved in 10 µL chloroform and spotted onto glass-backed silica-coated HPTLC plates (Kieselgel 60 F254, Merck; Darmstadt, Germany). In addition, small amounts of non-radioactive steroids were spotted as references. The HPTLC was developed twice in chloroform/methanol/water (300:20:1, v/v/v) and steroids identified after exposure to Fuji imaging plates and quantitated on a phosphoimager (BAS-2500, Fuji; Stamford, CT, USA).

The target in assay [6] is T2, aldosterone synthase (CYP11B2) (Homo sapiens, UniProt P19099).
T2 construct: expressed in transfected cells; host or cells: Schizosaccharomyces pombe strain MB164
T2 sequence (P19099 25-503): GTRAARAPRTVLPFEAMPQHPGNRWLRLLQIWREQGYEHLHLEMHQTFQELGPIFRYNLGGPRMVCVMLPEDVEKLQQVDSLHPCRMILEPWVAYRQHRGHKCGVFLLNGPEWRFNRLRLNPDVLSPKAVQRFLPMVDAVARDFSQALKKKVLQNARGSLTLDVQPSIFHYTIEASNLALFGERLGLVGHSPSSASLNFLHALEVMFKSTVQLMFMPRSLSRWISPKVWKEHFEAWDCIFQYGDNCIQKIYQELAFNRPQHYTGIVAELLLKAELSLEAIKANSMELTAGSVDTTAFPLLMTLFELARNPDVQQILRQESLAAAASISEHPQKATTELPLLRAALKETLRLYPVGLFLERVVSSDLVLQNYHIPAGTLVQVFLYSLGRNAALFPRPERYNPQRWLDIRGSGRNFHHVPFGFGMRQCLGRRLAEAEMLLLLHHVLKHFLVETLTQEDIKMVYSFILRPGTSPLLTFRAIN
Kind of assay: In vitro inhibition of CYP11B2 (Schizosaccharomyces pombe MB164). As to conditions: inhibitor 100 nM to 5 µM, three to four independent experiments. Here is the method: as §2

Structures are written as SMILES. In brackets after ≈: the same amount, converted by molar mass. Entries after “also recorded” stand apart in the source; their conditions may differ. Bounds are passed on as bounds.

What is called MIC is the least concentration at which growth counts as inhibited.

In the case of `O[C@@](Cn1cncn1)(Cn1ccc2ccccc21)c1ccc(Cl)cc1Cl` [(+)-(R)-8g], the MIC was 0.023 µg/mL (≈ 0.0594 µM) in the assay with C. albicans CA98001; 1.01 µg/mL (≈ 2.6 µM) in assay [1]; 2.75 µg/mL (≈ 7.1 µM) in assay [2]; 24.4 µg/mL (≈ 63 µM) in assay [3]; 19.4 µg/mL (≈ 50 µM) in the assay on CK98003 (Candida krusei); greater than 38.7 µg/mL in assay [4]. Further, the CYP11B1 inhibition effect entry in assay [5] is listed as “no inhibition”. The CYP11B2 inhibition effect entry in assay [6] is recorded as “slight inhibitory effect; also recorded: slight inhibition”.

`O[C@](Cn1cncn1)(Cn1ccc2ccccc21)c1ccc(Cl)cc1Cl` [(−)-(S)-8g]: the MIC against C. albicans CA98001 was 0.000256 µg/mL (≈ 0.000661 µM); in assay [1] it was less than 0.039 µg/mL; in assay [2], less than 0.039 µg/mL; in assay [3], 0.167 µg/mL (≈ 0.431 µM); with CK98003 (Candida krusei), 0.039 µg/mL (≈ 0.101 µM); in assay [4], 0.027 µg/mL (≈ 0.0697 µM). The “Times more active than FLC against C. albicans CA98001” value in the assay with C. albicans CA98001 is on record as “≈ 80”. In addition, in assay [5], the CYP11B1 inhibition effect result was “no inhibition”. Also, the CYP11B2 inhibition effect result in assay [6] is reported as “no inhibition”.

In the case of `OC(Cn1cncn1)(Cn1ccc2ccccc21)c1ccc(Cl)cc1Cl` (centres unmarked) [Compound 8g, 2-(2,4-Dichlorophenyl)-3-(1H-indol-1-yl)-1-(1H-1,2,4-triazol-1-yl)-propan-2-ol], the minimal inhibitory concentration (MIC) against C. albicans CA98001 was 0.000259 µg/mL (≈ 0.000669 µM); in assay [1], less than 0.004 µg/mL; in assay [2] it was less than 0.004 µg/mL; in assay [3], 0.08 µg/mL (≈ 0.207 µM); in the assay with CK98003 (Candida krusei) it was 3.56 µg/mL (≈ 9.2 µM); in assay [4], 0.15 µg/mL (≈ 0.387 µM). In addition, in the assay with C. albicans CA98001, the “Times more active than FLC against C. albicans CA98001” value is listed as “≈ 80”. Also, the CYP11B1 inhibition effect result in assay [5] is listed as “no inhibitory activity; also recorded: no inhibition”. Besides, the CYP11B2 inhibition effect result in assay [6] was “slight inhibitory effect; also recorded: slight inhibition”.
